According to ChEMBL document CHEMBL1201862, “PubChem BioAssay data set” (2004):
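Briefly, cells in 96-well plates were exposed to five compound concentrations for 48 h, and endpoints were estimated by linear interpolation. Here, GI50 denotes the concentration required for 50% inhibition of growth.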 Activity calls are given as the source filed them. No stated cut-off is given here; in the data, active = GI50 up to about 1.1 µM and inactive = higher.

Assays:
Experiment in all cases: growth of human tumour cells (NCI), 48 h
SK-MEL-28 = system: SK-MEL-28
NCI-H522 = system: NCI-H522
SW-620 = system: SW-620
DU-145 = system: DU-145
COLO 205 = system: COLO 205
UO-31 = system: UO-31
HCC 2998 = system: HCC 2998
NCI-H460 = system: NCI-H460
HCT-116 = system: HCT-116
SN12C = system: SN12C
OVCAR-8 = system: OVCAR-8
T47D = system: T47D
IGROV-1 = system: IGROV-1
UACC-257 = system: UACC-257
NCI/ADR-RES = system: NCI/ADR-RES
HT-29 = system: HT-29
SF-539 = system: SF-539
SNB-75 = system: SNB-75
SR = system: SR
SK-MEL-2 = system: SK-MEL-2

| Structure (SMILES) | GI50 (SK-MEL-28) | GI50 (NCI-H522) | GI50 (SW-620) | GI50 (DU-145) | GI50 (COLO 205) | GI50 (UO-31) | GI50 (HCC 2998) | GI50 (NCI-H460) | GI50 (HCT-116) | GI50 (SN12C) | GI50 (OVCAR-8) | GI50 (T47D) | GI50 (IGROV-1) | GI50 (UACC-257) | GI50 (NCI/ADR-RES) | GI50 (HT-29) | GI50 (SF-539) | GI50 (SNB-75) | GI50 (SR) | GI50 (SK-MEL-2) |
| --- | --- | --- | --- | --- | --- | --- | --- | --- | --- | --- | --- | --- | --- | --- | --- | --- | --- | --- | --- | --- |
| S=C(Nc1ccc2c(c1)Cc1ccccc1-2)Nc1ccc2c(c1)Cc1ccccc1-2 | > 100 µM (inactive) | > 100 µM (inactive) | > 100 µM (inactive) | > 100 µM (inactive) | > 100 µM (inactive) | > 100 µM (inactive) | > 100 µM (inactive) | > 100 µM (inactive) | > 100 µM (inactive) | > 100 µM (inactive) | > 100 µM (inactive) | > 100 µM (inactive) | > 100 µM (inactive) | > 100 µM (inactive) | > 100 µM (inactive) | > 100 µM (inactive) | – | – | – | – |
| O=[N+]([O-])c1ccc(/C(Cl)=C/c2ccc(/C=C(\Cl)c3ccc([N+](=O)[O-])cc3[N+](=O)[O-])cc2)c([N+](=O)[O-])c1 | > 100 µM (inactive) | > 100 µM (inactive) | > 100 µM (inactive) | – | > 100 µM (inactive) | > 100 µM (inactive) | > 100 µM (inactive) | > 100 µM (inactive) | > 100 µM (inactive) | > 100 µM (inactive) | > 100 µM (inactive) | – | > 100 µM (inactive) | > 100 µM (inactive) | – | > 100 µM (inactive) | > 100 µM (inactive) | > 100 µM (inactive) | > 100 µM (inactive) | > 100 µM (inactive) |
| C(#C[C@@]12CCC[C@@H]1N(Cc1ccccc1)CO2)c1ccc2c(c1)OCO2 | > 100 µM (inactive) | – | > 100 µM (inactive) | > 100 µM (inactive) | > 100 µM (inactive) | > 100 µM (inactive) | > 100 µM (inactive) | > 100 µM (inactive) | > 100 µM (inactive) | > 100 µM (inactive) | > 100 µM (inactive) | > 100 µM (inactive) | – | > 100 µM (inactive) | > 100 µM (inactive) | > 100 µM (inactive) | > 100 µM (inactive) | > 100 µM (inactive) | – | > 100 µM (inactive) |
| COc1cc(Nc2nc3cc(C(F)(F)F)ccc3nc2C)cc(OC)c1OC | 12.5 µM (inactive) | 12.3 µM (inactive) | 13.3 µM (inactive) | – | 12.1 µM (inactive) | 4.22 µM (inactive) | 3.61 µM (inactive) | 4.11 µM (inactive) | 8.81 µM (inactive) | 10.4 µM (inactive) | 11 µM (inactive) | – | 13.6 µM (inactive) | 6.37 µM (inactive) | – | 3 µM (inactive) | 12.2 µM (inactive) | 15.5 µM (inactive) | 6.15 µM (inactive) | 11 µM (inactive) |
| O=C1C(c2ccccc2)=C(O)c2cccc3cccc1c23 | > 100 µM (inactive) | > 100 µM (inactive) | > 100 µM (inactive) | – | > 100 µM (inactive) | > 100 µM (inactive) | > 100 µM (inactive) | > 100 µM (inactive) | > 100 µM (inactive) | > 100 µM (inactive) | > 100 µM (inactive) | – | > 100 µM (inactive) | > 100 µM (inactive) | – | > 100 µM (inactive) | > 100 µM (inactive) | 40.3 µM (inactive) | > 100 µM (inactive) | > 100 µM (inactive) |
| COc1ccc(/C(=N\Nc2ccccn2)c2ccccn2)cc1 | 0.336 µM (active) | < 0.01 µM (active) | < 0.01 µM (active) | 0.29 µM (active) | < 0.01 µM (active) | 0.0405 µM (active) | 2.93 µM (inactive) | < 0.0287 µM (active) | < 0.01 µM (active) | < 0.01 µM (active) | < 0.01 µM (active) | – | 0.0167 µM (active) | < 0.01 µM (active) | < 0.01 µM (active) | < 0.01 µM (active) | 0.0627 µM (active) | 0.414 µM (active) | 0.0547 µM (active) | 3.37 µM (inactive) |
| COC1CC(C)C(OC)c2cc(O)cc(c2O)NC(=O)/C(C)=C/C=C\C(C)C(OC(N)=O)/C(C)=C\C(C)C1OC (centres undefined) | 0.336 µM (active) | 0.0863 µM (active) | 0.082 µM (active) | 0.231 µM (active) | 0.0516 µM (active) | 7.11 µM (inactive) | 0.951 µM (active) | 0.203 µM (active) | 0.297 µM (active) | 0.36 µM (active) | 7.28 µM (inactive) | 0.266 µM (active) | 0.221 µM (active) | 0.397 µM (active) | – | 0.139 µM (active) | 0.417 µM (active) | 0.776 µM (active) | 0.0396 µM (active) | 1.69 µM (inactive) |
| O=C(O)Cc1ccccc1CCc1ccccc1Cl | > 100 µM (inactive) | > 100 µM (inactive) | > 100 µM (inactive) | – | > 100 µM (inactive) | > 100 µM (inactive) | > 100 µM (inactive) | > 100 µM (inactive) | > 100 µM (inactive) | > 100 µM (inactive) | > 100 µM (inactive) | – | > 100 µM (inactive) | > 100 µM (inactive) | – | > 100 µM (inactive) | > 100 µM (inactive) | 93.8 µM (inactive) | > 100 µM (inactive) | 30.8 µM (inactive) |
